IC50 data for 31 molecules are collected here from patent US9845322B2 (Hoffmann-La Roche Inc., priority 2016, dated 2017).

In general, IC50 refers to the concentration at which inhibition is half-maximal.

The subject of the first experiment is HBsAg secretion in HepG2.2.15 cells. Kind of experiment: HBsAg assay (chemiluminescence immunoassay of secreted HBsAg in culture supernatant). The class given is cell-based, HBV. The note with it: HepG2.2.15 cells; concentration at which HBsAg secretion was reduced by 50% compared to the no drug control; read-out: IC50 (HBsAg assay). An outline of the steps:
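IC50 taken from dose-response curves as the concentration halving secreted HBsAg relative to DMSO control. Measured by chemiluminescence immunoassay of culture supernatant from constitutively HBV-expressing HepG2.2.15 cells, seeded at 1.5×10^4/well in duplicate and exposed to three-fold serial compound dilutions at 1% final DMSO.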
For `COc1cc(N2CCc3nc(-c4ncccn4)ncc3C2C)cc(F)c1F` (stereo not shown) [Example 15, 6-(3,4-difluoro-5-methoxy-phenyl)-5-methyl-2-pyrimidin-2-yl-7,8-dihydro-5H-pyrido[4,3-d]pyrimidine], the half-maximal inhibitory concentration (IC50) worked out at 15 nM. On the same count and under the same terms, then `CC1c2cnc(-c3ncccn3)nc2CCN1c1cc(F)c(F)c(OCCCS(C)(=O)=O)c1` (stereo not shown) [Example 47, 6-[3,4-difluoro-5-(3-methylsulfonylpropoxy)phenyl]-5-methyl-2-pyrimidin-2-yl-7,8-dihydro-5H-pyrido[4,3-d]pyrimidine], with 36 nM; and `CC1c2cnc(-c3ncccn3)nc2CCN1c1cc(F)c(F)c(OC2CCOC2)c1` (stereo not shown) [Example 121, 6-(3,4-difluoro-5-tetrahydrofuran-3-yloxy-phenyl)-(5R/S)-methyl-2-pyrimidin-2-yl-7,8-dihydro-5H-pyrido[4,3-d]pyrimidine], with 42 nM. On the same count and under the same terms, then `CCC1c2cnc(-c3ccccn3)nc2CCN1c1cc(F)c(F)c(OC)c1` (single isomer, unassigned; (-)) [Example 11, (−)-6-(3,4-difluoro-5-methoxy-phenyl)-5-ethyl-2-(2-pyridyl)-7,8-dihydro-5H-pyrido[4,3-d]pyrimidine], with 85 nM. Same read-out and setting: next, `CC1c2cnc(-c3ncccn3)nc2CCN1c1cc(F)cc(N2CCNC(=O)C2)n1` (single isomer, unassigned; (-)) [Example 225, (−)-4-[4-fluoro-6-(5-methyl-2-pyrimidin-2-yl-7,8-dihydro-5H-pyrido[4,3-d]pyrimidin-6-yl)-2-pyridyl]piperazin-2-one]: 13 nM; `COc1cc(F)nc(N2CCc3nc(-c4ncccn4)ncc3C2C)c1` (single isomer, unassigned; (+)) [Example 139, (+)-6-(6-fluoro-4-methoxy-2-pyridyl)-5-methyl-2-pyrimidin-2-yl-7,8-dihydro-5H-pyrido[4,3-d]pyrimidine]: 1590 nM; `CC1c2cnc(-c3ncccn3)nc2CCN1c1cc(N2CCCC2)cc(F)n1` (single isomer, unassigned; (+)) [Example 201, (+)-6-(6-fluoro-4-pyrrolidin-1-yl-2-pyridyl)-5-methyl-2-pyrimidin-2-yl-7,8-dihydro-5H-pyrido[4,3-d]pyrimidine]: 124 nM. As to `COc1cc(N2CCc3nc(-c4ncccn4)ncc3C2C)cc(Cl)c1F` (stereo not shown) [Example 41, 6-(3-chloro-4-fluoro-5-methoxy-phenyl)-5-methyl-2-pyrimidin-2-yl-7,8-dihydro-5H-pyrido[4,3-d]pyrimidine], the half-inhibitory concentration (IC50) turned out to be 38 nM. On the same count and under the same terms, then `COCCOc1cc(N2CCc3nc(-c4ccccn4)ncc3C2C)cc(F)c1F` (single isomer, unassigned; (-)) [Example 21, (−)-6-[3,4-difluoro-5-(2-methoxyethoxy)phenyl]-5-methyl-2-(2-pyridyl)-7,8-dihydro-5H-pyrido[4,3-d]pyrimidine], with 50 nM.

Staying with this experiment, now noted: Hepatitis B virus, HepG2.2.15, HepG2.2.15 cells; concentration at which HBsAg secretion was reduced by 50% compared to the no drug control; read-out: IC50 (HBsAg assay).
With `CC1c2cnc(-c3ncccn3)nc2CCN1c1cc(OCCCCCCC(=O)O)cc(F)n1` (single isomer, unassigned; (-)) [Example 155, (−)-7-[[2-fluoro-6-[5-methyl-2-pyrimidin-2-yl-7,8-dihydro-5H-pyrido[4,3-d]pyrimidin-6-yl]-4-pyridyl]oxy]heptanoic acid], the IC50 came to 12 nM. On the same count and under the same terms, then `COC(=O)C(CCOc1cc(N2CCc3nc(-c4ncccn4)ncc3C2C)cc(F)c1F)NC(=O)OC(C)(C)C` (stereo not shown) [Example 102, methyl 2-(tert-butoxycarbonylamino)-4-[2,3-difluoro-5-(5-methyl-2-pyrimidin-2-yl-7,8-dihydro-5H-pyrido[4,3-d]pyrimidin-6-yl)phenoxy]butanoate], with 249 nM. `CC1c2cnc(-c3ccccn3)nc2CCN1c1cc(F)c(F)c(OCC(=O)N2CCCC2)c1` (stereo not shown) [Example 31, 2-[2,3-difluoro-5-[5-methyl-2-(2-pyridyl)-7,8-dihydro-5H-pyrido[4,3-d]pyrimidin-6-yl]phenoxy]-1-pyrrolidin-1-yl-ethanone]: the IC50 worked out at 156 nM. Same read-out and setting: next, `CC1c2cnc(-c3ncccn3)nc2CCN1c1cc(OCCCCCCCC(N)=O)cc(F)n1` (stereo not shown) [Example 169, 8-[[2-fluoro-6-(5-methyl-2-pyrimidin-2-yl-7,8-dihydro-5H-pyrido[4,3-d]pyrimidin-6-yl)-4-pyridyl]oxy]octanamide]: 18 nM; `CC1c2cnc(-c3ncccn3)nc2CCN1c1cc(OCC2CCOCC2)cc(F)n1` (stereo not shown) [Example 151, 6-[6-fluoro-4-(tetrahydropyran-4-ylmethoxy)-2-pyridyl]-5-methyl-2-pyrimidin-2-yl-7,8-dihydro-5H-pyrido[4,3-d]pyrimidine]: 12 nM; `COc1cc(N2CCc3nc(-c4ncccn4)ncc3C2C)cc(F)n1` (stereo not shown) [Example 129, 6-(2-fluoro-6-methoxy-4-pyridyl)-5-methyl-2-pyrimidin-2-yl-7,8-dihydro-5H-pyrido[4,3-d]pyrimidine]: 18 nM. For the molecule `CC1c2cnc(-c3ncccn3)nc2CCN1c1cc(F)c(F)c(OCCC(=O)O)c1` (stereo not shown) [Example 51, 3-[2,3-difluoro-5-(5-methyl-2-pyrimidin-2-yl-7,8-dihydro-5H-pyrido[4,3-d]pyrimidin-6-yl)phenoxy]propanoic acid], the half-maximal inhibitory concentration (IC50) was 2670 nM. Still for that read-out and setting: then `CC1c2cnc(-c3ncccn3)nc2CCN1c1cc(F)c(F)c(OCCC2CCOC2)c1` (stereo not shown) [Example 114, 6-[3,4-difluoro-5-(2-tetrahydrofuran-3-ylethoxy)phenyl]-5-methyl-2-pyrimidin-2-yl-7,8-dihydro-5H-pyrido[4,3-d]pyrimidine], with 18 nM. On the same count and under the same terms, then `COc1cc(F)nc(N2CCc3nc(-c4ccccn4)ncc3C2C)c1` (stereo not shown) [Example 153, 6-(6-fluoro-4-methoxy-2-pyridyl)-5-methyl-2-(2-pyridyl)-7,8-dihydro-5H-pyrido[4,3-d]pyrimidine], with 22 nM. For the molecule `CC1c2cnc(-c3ccccn3)nc2CCN1c1cc(OCCCCCCC(N)=O)cc(F)n1` (stereo not shown) [Example 180, 7-[[2-fluoro-6-[5-methyl-2-(2-pyridyl)-7,8-dihydro-5H-pyrido[4,3-d]pyrimidin-6-yl]-4-pyridyl]oxy]heptanamide], the IC50 turned out to be 27 nM.

As to `Cc1cc(N(C)C)nc(N2CCc3nc(-c4ncccn4)ncc3[C@H]2C)n1` [Example 213, (−)-N,N,6-trimethyl-2-[5-methyl-2-pyrimidin-2-yl-7,8-dihydro-5H-pyrido[4,3-d]pyrimidin-6-yl]pyrimidin-4-amine], the concentration for half-maximal inhibition (IC50) worked out at 65 nM. Same read-out and setting: then `COc1cc(N2CCc3nc(-c4ncccn4)ncc3C2C)c(Cl)c(F)c1Cl` (single isomer, unassigned; (+)) [Example 125, (+)-6-(2,4-dichloro-3-fluoro-5-methoxy-phenyl)-5-methyl-2-pyrimidin-2-yl-7,8-dihydro-5H-pyrido[4,3-d]pyrimidine], with 1120 nM; and `CC1c2cnc(-c3ncccn3)nc2CCN1c1cc(OCCCC(=O)O)cc(F)n1` (single isomer, unassigned; (-)) [Example 184, (−)-4-[[2-fluoro-6-[5-methyl-2-pyrimidin-2-yl-7,8-dihydro-5H-pyrido[4,3-d]pyrimidin-6-yl]-4-pyridyl]oxy]butanoic acid], with 182 nM. In the case of `COc1cc(N2CCc3nc(-c4ncccn4)ncc3C2C)cc(F)c1I` (stereo not shown) [Example 111, 6-(3-fluoro-4-iodo-5-methoxy-phenyl)-5-methyl-2-pyrimidin-2-yl-7,8-dihydro-5H-pyrido[4,3-d]pyrimidine], the 50% inhibitory concentration (IC50) is 41 nM.

Regarding `COc1cc(Cl)nc(N2CCc3nc(-c4ncccn4)ncc3C2C)c1` (stereo not shown) [Example 126], the half-maximal inhibitory concentration (IC50) was 8 nM. On the same count and under the same terms, then `CC1c2cnc(-c3ccccn3)nc2CCN1c1cc(N2CCNC(=O)C2)cc(F)n1` (stereo not shown) [Example 222, 4-[2-fluoro-6-[5-methyl-2-(2-pyridyl)-7,8-dihydro-5H-pyrido[4,3-d]pyrimidin-6-yl]-4-pyridyl]piperazin-2-one], with 16 nM.

Turning to `CC1c2cnc(-c3ncccn3)nc2CCN1c1cc(F)cc(C2CC2)c1` (stereo not shown) [Example 137, 6-(3-cyclopropyl-5-fluoro-phenyl)-5-methyl-2-pyrimidin-2-yl-7,8-dihydro-5H-pyrido[4,3-d]pyrimidine], the IC50 is 124 nM.

For the molecule `CC1c2cnc(-c3ncccn3)nc2CCN1c1cc(OCCCCC(=O)O)cc(F)n1` (single isomer, unassigned; (-)) [Example 157, (−)-5-[[2-fluoro-6-[5-methyl-2-pyrimidin-2-yl-7,8-dihydro-5H-pyrido[4,3-d]pyrimidin-6-yl]-4-pyridyl]oxy]pentanoic acid], the concentration for half-maximal inhibition (IC50) amounted to 47 nM. Same read-out and setting: next, `CC1c2cnc(-c3ccccn3)nc2CCN1c1cc(OCCCCCC(N)=O)cc(F)n1` (stereo not shown) [Example 171, 6-[[2-fluoro-6-[5-methyl-2-(2-pyridyl)-7,8-dihydro-5H-pyrido[4,3-d]pyrimidin-6-yl]-4-pyridyl]oxy]hexanamide]: 18 nM; `CC1c2cnc(-c3ccccn3)nc2CCN1c1cc(OCC2CCCO2)cc(F)n1` (stereo not shown) [Example 189, 6-[6-fluoro-4-(tetrahydrofuran-2-ylmethoxy)-2-pyridyl]-5-methyl-2-(2-pyridyl)-7,8-dihydro-5H-pyrido[4,3-d]pyrimidine]: 40 nM. `CC1c2cnc(-c3ncccn3)nc2CCN1c1cc(F)c(F)c(OCCCC(=O)O)c1` (stereo not shown) [Example 50, 4-[2,3-difluoro-5-(5-methyl-2-pyrimidin-2-yl-7,8-dihydro-5H-pyrido[4,3-d]pyrimidin-6-yl)phenoxy]butanoic acid]: the IC50 is 1130 nM. As to `CC1c2cnc(-c3ncccn3)nc2CCN1c1cc(F)c(F)c(OCCCN2CCN(S(C)(=O)=O)CC2)c1` (stereo not shown) [Example 110, 6-[3,4-difluoro-5-[3-(4-methylsulfonylpiperazin-1-yl)propoxy]phenyl]-5-methyl-2-pyrimidin-2-yl-7,8-dihydro-5H-pyrido[4,3-d]pyrimidine], the IC50 turned out to be 79 nM.
